Assay results: patent US8637525B2, “Compounds for the reduction of beta-amyloid production” (Bristol-Myers Squibb Company, priority 2009, dated 2014)

tested on: Aβ1-42 production; test: Cellular assay for inhibition of Aβ1-42 production (H4 APP751 SWE clone 8.20); type: cell-based; conditions: 19 h, H4 APP751 SWE clone 8.20 cells, 19 h incubation; class symbols; read-out: Activity Rating (Aβ42 cellular IC50)
Summary of the method: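 Viewlux signal read-out; IC50 by curve fit. Sandwich: 565 anti-Aβ42 neoepitope (Wallac conjugate, 0.8 ng/well) + 26D6 anti-N-terminus (APC, 75 ng/well), in Tris-HCl 40 mM pH 7.4/0.2% BSA, o/n 4 °C. Cells exposed to compound 19 h, 37 °C, 5% CO2.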

| SMILES | IC50 [nM] |
| --- | --- |
| CNc1nc(Nc2ccc(-n3ncnc3C)c(OC)c2)nc2c1CC[C@H]2c1ccc(F)cc1 (single isomer, unassigned) [Example 264A] | 1.5 to 9.9 |
| CNc1nc(Nc2ccc(-n3cnc(C)n3)c(OC)c2)nc2c1CC[C@@]2(C)c1ccc(F)cc1 (single isomer, unassigned) [Example 265A] | 10 to 100 |
| CNc1nc(Nc2ccc(-n3cnc(C)n3)c(OC)c2)nc2c1CC[C@H]2c1ccccc1OC (single isomer, unassigned) [Example 266A] | 10 to 100 |
| CNc1nc(Nc2ccc(-n3cnc(C)n3)c(OC)c2)nc2c1CC[C@H]2c1ccccc1Cl (single isomer, unassigned) [Example 268A] | 1.5 to 9.9 |
| CNc1nc(Nc2ccc(-n3cnc(C)n3)c(OC)c2)nc2c1CC[C@H]2c1c(F)cc(F)cc1F (single isomer, unassigned) [Example 270A] | 1.5 to 9.9 |
| CNc1nc(Nc2ccc(-n3cnc(C)n3)c(OC)c2)nc2c1CC[C@H]2c1ccc(Cl)cc1F (single isomer, unassigned) [Example 271A] | 1.5 to 9.9 |
| CNc1nc(Nc2ccc(-n3cnc(C)n3)c(OC)c2)nc2c1CC[C@H]2c1cccc(OC)c1 (single isomer, unassigned) [Example 272A] | 10 to 100 |

Other lines, results leading:

| IC50 [nM] | SMILES |
| --- | --- |
| 1.5 to 9.9 | CNc1nc(Nc2ccc(-n3cnc(Cl)c3)c(OC)c2)nc2c1CCC2c1ccc(F)cc1F (single isomer, unassigned) [Example 109A, N^2-(4-(4-Chloro-1H-imidazol-1-yl)-3-methoxyphenyl)-7-(2,4-difluorophenyl)-N^4-methyl-6,7-dihydro-5H-cyclopenta[d]pyrimidine-2,4-diamine] |
| 100 to 1000 | COc1cc(Nc2nc3c(c(N4CCC(F)C4)n2)COCC3c2ccc(F)cc2)ccc1-n1cnc(Cl)c1 (stereo in doubt) [Example 57B, N-(4-(4-chloro-1H-imidazol-1-yl)-3-methoxyphenyl)-8-(4-fluorophenyl)-4-((R)-3-fluoropyrrolidin-1-yl)-7,8-dihydro-5H-pyrano[4,3-d]pyrimidin-2-amine] |
| 1.5 to 9.9 | COc1cc(Nc2nc3c(c(N4CCC(F)C4)n2)COCC3c2ccc(F)cc2)ccc1-n1cnc(Cl)c1 (stereo in doubt) [Example 58A, N-(4-(4-chloro-1H-imidazol-1-yl)-3-methoxyphenyl)-8-(4-fluorophenyl)-4-((S)-3-fluoropyrrolidin-1-yl)-7,8-dihydro-5H-pyrano[4,3-d]pyrimidin-2-amine] |

same assay, conditions: 19 h, H4 APP751 SWE clone 8.20 cells, 19 h incubation; read-out: Activity Rating (Aβ42 cellular IC50), numeric value

| IC50 [nM] | SMILES |
| --- | --- |
| 14 | COc1cc(Nc2nc3c(c(N4CCC(F)C4)n2)COCC3c2ccc(F)cc2)ccc1-n1cnc(Cl)c1 (stereo in doubt) [Example 57A, N-(4-(4-chloro-1H-imidazol-1-yl)-3-methoxyphenyl)-8-(4-fluorophenyl)-4-((R)-3-fluoropyrrolidin-1-yl)-7,8-dihydro-5H-pyrano[4,3-d]pyrimidin-2-amine] |
| 120 | COc1cc(Nc2nc3c(c(N4CCC(F)C4)n2)COCC3c2ccc(F)cc2)ccc1-n1cnc(Cl)c1 (stereo in doubt) [Example 58B, N-(4-(4-chloro-1H-imidazol-1-yl)-3-methoxyphenyl)-8-(4-fluorophenyl)-4-((S)-3-fluoropyrrolidin-1-yl)-7,8-dihydro-5H-pyrano[4,3-d]pyrimidin-2-amine] |

same assay, conditions: H4 APP751 SWE clone 8.20 cells, 19 h incubation; class symbols; read-out: Activity Rating (Aβ42 cellular IC50)

| SMILES | IC50 [nM] |
| --- | --- |
| CCN(C)c1nc(Nc2ccc(-n3cnc(Cl)c3)c(OC)c2)nc2c1CCCC2c1ccccc1 (single isomer, unassigned) [Example 124A, N^2-(4-(4-Chloro-1H-imidazol-1-yl)-3-methoxyphenyl)-N^4-ethyl-N^4-methyl-8-phenyl-5,6,7,8-tetrahydroquinazoline-2,4-diamine] | 1.5 to 9.9 |
| CCN(C)c1nc(Nc2ccc(-n3cnc(Cl)c3)c(OC)c2)nc2c1CCCC2c1ccccc1 (single isomer, unassigned) [Example 124B, N^2-(4-(4-Chloro-1H-imidazol-1-yl)-3-methoxyphenyl)-N^4-ethyl-N^4-methyl-8-phenyl-5,6,7,8-tetrahydroquinazoline-2,4-diamine] | 10 to 100 |
| COc1cc(Nc2nc3c(c(N(C)C)n2)CCCC3c2ccc(F)cc2)ccc1-n1cnc(Cl)c1 (single isomer, unassigned) [Example 127A, N^2-(4-(4-chloro-1H-imidazol-1-yl)-3-methoxyphenyl)-8-(4-fluorophenyl)-N^4,N^4-dimethyl-5,6,7,8-tetrahydroquinazoline-2,4-diamine] | 1.5 to 9.9 |
| CCNc1nc(Nc2ccc(-n3cnc(Cl)c3)c(OC)c2)nc2c1CCN(CC)C2c1ccc(F)cc1 (single isomer, unassigned) [Example 169A, N2-(4-(4-chloro-1H-imidazol-1-yl)-3-methoxyphenyl)-N4,7-diethyl-8-(4-fluorophenyl)-5,6,7,8-tetrahydropyrido[3,4-d]pyrimidine-2,4-diamine] | 1.5 to 9.9 |
| CCNc1nc(Nc2ccc(-n3cnc(Cl)c3)c(OC)c2)nc2c1CCN(C(=O)OC)C2c1ccc(F)cc1 (single isomer, unassigned) [Example 170A, methyl 2-(4-(4-chloro-1H-imidazol-1-yl)-3-methoxyphenylamino)-4-(ethylamino)-8-(4-fluorophenyl)-5,6-dihydropyrido[3,4-d]pyrimidine-7(8H)-carboxylate] | 1.5 to 9.9 |
| [2H]C([2H])([2H])Nc1nc(Nc2ccc(-n3cnc(Cl)c3)c(OC)c2)nc2c1CCC2c1ccccc1 (single isomer, unassigned) [Example 176A, N^2-(4-(4-Chloro-1H-imidazol-1-yl)-3-methoxyphenyl)-N^4-trideuteromethyl-7-phenyl-6,7-dihydro-5H-cyclopenta[d]pyrimidine-2,4-diamine] | 1.5 to 9.9 |
| [2H]C([2H])([2H])Nc1nc(Nc2ccc(-n3cnc(Cl)c3)c(OC)c2)nc2c1CCC2c1ccccc1 (single isomer, unassigned) [Example 176B, N^2-(4-(4-Chloro-1H-imidazol-1-yl)-3-methoxyphenyl)-N^4-trideuteromethyl-7-phenyl-6,7-dihydro-5H-cyclopenta[d]pyrimidine-2,4-diamine] | 1.5 to 9.9 |
| CNc1nc(Nc2ccc(-n3cnc(C)n3)c(OC)c2)nc2c1CCC2c1ccc(F)cc1F (single isomer, unassigned) [Example 193A, 7-(2,4-difluorophenyl)-N2-(3-methoxy-4-(3-methyl-1H-1,2,4-triazol-1-yl)phenyl)-N4-methyl-6,7-dihydro-5H-cyclopenta[d]pyrimidine-2,4-diamine] | 100 to 1000 |
| CNc1nc(Nc2ccc(-n3cnc(C)n3)c(OC)c2)nc2c1CCC2c1ccc(F)cc1F (single isomer, unassigned) [Example 193B, 7-(2,4-difluorophenyl)-N2-(3-methoxy-4-(3-methyl-1H-1,2,4-triazol-1-yl)phenyl)-N4-methyl-6,7-dihydro-5H-cyclopenta[d]pyrimidine-2,4-diamine] | 10 to 100 |
| CNc1nc(Nc2ccc(-n3cnc(C)n3)c(OC)c2)nc2c1CN(C)CC2c1ccc(F)cc1 (single isomer, unassigned) [Example 198A, 8-(4-fluorophenyl)-N2-(3-methoxy-4-(3-methyl-1H-1,2,4-triazol-1-yl)phenyl)-N4,6-dimethyl-5,6,7,8-tetrahydropyrido[4,3-d]pyrimidine-2,4-diamine] | 100 to 1000 |

Now from value to compound:

| IC50 [nM] | SMILES |
| --- | --- |
| 10 to 100 | CNc1nc(Nc2ccc(-n3cnc(Cl)c3)c(OC)c2)nc2c1CCC2c1cc(F)c(F)c(F)c1 (single isomer, unassigned) [Example 103B, N^2-(4-(4-chloro-1H-imidazol-1-yl)-3-methoxyphenyl)-N^4-methyl-7-(3,4,5-trifluorophenyl)-6,7-dihydro-5H-cyclopenta[d]pyrimidine-2,4-diamine] |
| 10 to 100 | COc1cc(Nc2nc3c(c(N4CCC(F)(F)C4)n2)CCC3c2cc(F)c(F)c(F)c2)ccc1-n1cnc(Cl)c1 (single isomer, unassigned) [Example 107A, N-(4-(4-chloro-1H-imidazol-1-yl)-3-methoxyphenyl)-4-(3,3-difluoropyrrolidin-1-yl)-7-(3,4,5-trifluorophenyl)-6,7-dihydro-5H-cyclopenta[d]pyrimidin-2-amine] |
| 100 to 1000 | COc1cc(Nc2nc3c(c(N4CCC(F)(F)C4)n2)CCC3c2cc(F)c(F)c(F)c2)ccc1-n1cnc(Cl)c1 (single isomer, unassigned) [Example 107B, N-(4-(4-chloro-1H-imidazol-1-yl)-3-methoxyphenyl)-4-(3,3-difluoropyrrolidin-1-yl)-7-(3,4,5-trifluorophenyl)-6,7-dihydro-5H-cyclopenta[d]pyrimidin-2-amine] |
| 1.5 to 9.9 | CNc1nc(Nc2ccc(-n3cnc(Cl)c3)c(OC)c2)nc2c1CCC2c1ccc(F)cc1F (single isomer, unassigned) [Example 109B, N^2-(4-(4-Chloro-1H-imidazol-1-yl)-3-methoxyphenyl)-7-(2,4-difluorophenyl)-N^4-methyl-6,7-dihydro-5H-cyclopenta[d]pyrimidine-2,4-diamine] |
| 10 to 100 | COc1cc(Nc2nc3c(c(N(C)C)n2)CCCC3c2ccc(F)cc2)ccc1-n1cnc(Cl)c1 (single isomer, unassigned) [Example 127B, N^2-(4-(4-chloro-1H-imidazol-1-yl)-3-methoxyphenyl)-8-(4-fluorophenyl)-N^4,N^4-dimethyl-5,6,7,8-tetrahydroquinazoline-2,4-diamine] |
| 1.5 to 9.9 | COc1cc(Nc2nc3c(c(N4CC(OC)C4)n2)CCC3c2ccccc2)ccc1-n1cnc(Cl)c1 (single isomer, unassigned) [Example 183A, N-(4-(4-chloro-1H-imidazol-1-yl)-3-methoxyphenyl)-4-(3-methoxyazetidin-1-yl)-7-phenyl-6,7-dihydro-5H-cyclopenta[d]pyrimidin-2-amine] |
| 10 to 100 | COc1cc(Nc2nc3c(c(N4CC(OC)C4)n2)CCC3c2ccccc2)ccc1-n1cnc(Cl)c1 (single isomer, unassigned) [Example 183B, N-(4-(4-chloro-1H-imidazol-1-yl)-3-methoxyphenyl)-4-(3-methoxyazetidin-1-yl)-7-phenyl-6,7-dihydro-5H-cyclopenta[d]pyrimidin-2-amine] |
